For assay [1], the system named is background 2-thioacetyl MAGE hydrolyzing activity in membrane proteomes. Briefly: Background 2-thioacetyl MAGE hydrolyzing activity in membrane proteomes. Type of assay: biochemical. The settings on record: FIG. 14. On the procedure:
KIAA1363-transfected cell lines were used for substrate-based enzyme activity assays. Membrane proteomes were adjusted to 0.5 mg/ml in 50 mM tris pH 7.4 buffer containing 5 mM CHAPS detergent. Immediately prior to the assay, 5,5′-dithiobis-(2-nitrobenzoic acid) (DTNB, Sigma) was added at 0.5 mM to the membrane proteome to prepare the Assay Buffer. For analysis of inhibitors, 1 ul of a 50× inhibitor solution in DMSO was added to 48 ul of Assay Buffer and preincubated for 20 min at RT. The substrate 2-thioacetyl MAGE (Cayman Chemical) was prepared by evaporating off the original solvent under nitrogen and redissolving the residue in DMSO. 1 ul of 5 mM 2-thioacetyl MAGE stock is added to each assay well to begin the assay. Absorbance is determined at A405 nm.
The background 2-thioacetyl MAGE hydrolyzing activity in membrane proteomes that is not inhibited by AS-115 is inhibited by the broad serine protease inhibitor PMSF (FIG. 14). The IC50 of AS-115 was measured using the 2-thioacetyl MAGE substrate-based assay with Flag-KIAA1363/293T cell membrane proteome (FIG. 15).

The test system of another assay is shKIAA1363 cells. Briefly: Cell migration assay (Transwell) with shKIAA1363 cells. Type of assay: cell-based, human. The conditions noted are these: concentrations up to 1 μM, 18 h. On the procedure:
Migration assays were performed in Transwell chambers with […] pore-sized membranes coated with 10 μg/ml collagen overnight at 4° C. (Corning). Twenty-four hours before the start of the migration assay, cancer cell lines were plated at concentration of 2.25×10^6 cells per 10 cm dish. At the start of the migration assay, cells were harvested by washing two times with PBS and then serum starved in medium containing 0.05% BSA for 4 hours. Serum starved cells were trypsinized, spun at 1400 rpm for 3 minutes, resuspended, and counted. Cells were diluted to a density of 100,000 cells/ml in medium contain 0.05% BSA, and then 250 μl were placed in the upper chamber of the transwells. Either DMSO, alkyl LPA (10 nM), alkyl LPC (10-1000 nM), or MAGE (10-1000 nM) in medium containing 0.05% BSA was added in the lower chamber, and cells were allowed to migrate for 18 h. The filters were then fixed and stained with Diff-Quik (Dade Behring). Cells that had not migrated through the chamber were removed with a cotton ball. The cells which migrated were counted at a magnification of 40× and from each migration chamber 6 fields were independently counted.
The decrease in tumorigenic potential of shKIAA1363 cells was not associated with a change in proliferation potential in vitro (FIG. 11). shKIAA1363 cells were, however, impaired in their in vitro migration capacity compared to control cells (FIG. 9B). […]

A further assay deals with C8161 melanoma cells. The assay can be described thus: LC-MS MAGE lipid levels in inhibitor-treated melanoma cells. Type of assay: cell-based, human. The settings on record: compared to DMSO controls. On the procedure:
(§1) The following LC-MS conditions were used for analysis of cancer cell metabolomes. Cell pellets were harvested by scraping, isolated by centrifugation at 1,400×g, and dounce-homogenized in 4 mL of a 2:1:1 mixture of chloroform:methanol:Tris buffer (50 mM Tris*HCl, pH 8.0). Samples that were analyzed by targeted LC-MS were homogenized in the presence of the following synthetic standards: C15:0 MAG (50 pmol), C17:0 LPA (50 pmol), and 13C-C16:0 MAGE (25 pmol). Organic and aqueous layers were separated by centrifugation at 1,260×g for 5 min. The organic layer was then removed, dried under a stream of N2, and re-solubilized in 100 μL of chloroform, of which 30 μL was analyzed by LC-MS. Extraction of LPA was performed by acidifying the remaining aqueous layer to a final concentration of 5% formic acid, followed by the addition of 2 mL of chloroform. The mixture was vortexed, the organic layer removed, concentrated to dryness, and dissolved in 100 μL of chloroform, of which 30 μL was analyzed by LC-MS.
(§2) LC-MS analysis was performed using an Agilent 1100 LC-MSD SL instrument. […] Mobile phase A was composed of a 95:5 ratio of water:methanol and mobile phase B consisted of 2-propanol, methanol, and water in a 60:35:5 ratio. Solvent modifiers such as 0.1% formic acid and 0.1% ammonium hydroxide were used to assist ion formation as well as improve the LC resolution in both positive and negative ionization modes respectively. The flow rate for each run started at 0.1 mL/min for 5 min, to alleviate backpressure associated with injecting chloroform. The gradient started at 0% B and increased linearly to 100% B over the course of 40 min with a flow rate of 0.4 mL/min, followed by an isocratic gradient of 100% B for 7 min before equilibrating for 8 min at 0% B with a flow rate of 0.5 mL/min.
(§3) MS analysis was performed with an electrospray ionization (ESI) source. […] Differentially expressed metabolites between sample pairs were identified using the XCMS analyte profiling software (http://metlin/download) that aligns mass peaks from two LC-MS traces and quantifies the relative intensities of global metabolites (5). Significant inhibitor-sensitive peak changes were confirmed by manual quantification using the area under the peak normalized to total ion current. […] Peaks were quantified by measuring the area under the peak and normalized to an internal standard (C15:0 MAG) or endogenous lipid (palmitic acid). […]
(§4) Human ovarian cancer cell lines were obtained form the National Cancer Institute's Developmental Therapeutics Program. […] At approximately 80% confluency, cells were trypsinized, counted with the aid of a hemocytometer, and 2.5×10^6 cells were plated in 6 cm dishes. […] After incubation for 4 h the cells were harvested and analyzed by ABPP or LC-MS. […]

In another assay the test system is MUM-2B melanoma cells. The assay is described as above. It counts as cell-based, human. The settings on record: compared to DMSO controls. On the procedure:
as §1, §2, §3, §4

For another assay, the system named is SKOV-3 cells. Briefly: Targeted LC-MS analysis of lipid levels in inhibitor-treated cells. Type of assay: cell-based, human. The conditions noted are these: compared to DMSO controls. On the procedure: as §1, §2
MS analysis was performed with an electrospray ionization (ESI) source. The capillary voltage was set to 3.0 kV and the fragmentor voltage to 100V. The drying gas temperature was 350° C., the drying gas flow rate was 10 L/min, and the nebulizer pressure was 35 psi. Untargeted data was collected using a mass range of 200-1000 Da and exported as common data format (.CDF) files for computational analysis. Differentially expressed metabolites between sample pairs were identified using the XCMS analyte profiling software (http://metlin/download) that aligns mass peaks from two LC-MS traces and quantifies the relative intensities of global metabolites (5). Significant inhibitor-sensitive peak changes were confirmed by manual quantification using the area under the peak normalized to total ion current. Targeted LC-MS measurements were made using selected ion monitoring (SIM). Peaks were quantified by measuring the area under the peak and normalized to an internal standard (C15:0 MAG) or endogenous lipid (palmitic acid). Absolute MAGE levels were estimated by comparison to a 13C-MAGE standard.
Human ovarian cancer cell lines were obtained form the National Cancer Institute's Developmental Therapeutics Program. The melanoma lines C8161 and MUM-2B were obtained form Mary Hendrix. Cells were maintained in RPMI medium 1640 with 10% (v/v) fetal calf serum at 37° C. in a humidified atmosphere of 5% CO2/95% air. At approximately 80% confluency, cells were trypsinized, counted with the aid of a hemocytometer, and 2.5×10^6 cells were plated in 6 cm dishes. 20 h after plating cells were washed twice with PBS and supplemented with serum free RPMI containing 0.5% BSA (Sigma)(BSA-RPMI) with AS115 (0.01-10 μM) or vehicle (DMSO) at 0.1%. After incubation for 4 h the cells were harvested and analyzed by ABPP or LC-MS.
By extension, the m/z 345 and 347 metabolites were interpreted to represent the C18:1 and C18:0 MAGEs, respectively. […] MAGE levels were measured by targeted LC-MS analysis of SKOV-3 cells treated with AS115 (5 μM) or DMSO for 4 h using a 13C-C16:0 MAGE internal standard. Values are represented as pmol/10^6 cells. […]

Turning to `O=S(=O)(F)Cc1ccccc1` [PMSF, reference compound], the “Background 2-thioacetyl MAGE hydrolyzing activity” value in assay [1] is “inhibited”.

With monoalkylglycerol ether [MAGE], the “Effect on cancer cell migration” value in the assay on shKIAA1363 cells is on record as “Neither MAGE nor alkyl-LPC impacted cancer cell migration”.

On to `NC(=O)c1cccc(-c2cccc(OC(=O)NC3CCCCC3)c2)c1` [URB597, reference compound], for which the “Levels of MAGE lipids” value in the assay on C8161 melanoma cells, with MUM-2B melanoma cells and in the assay with SKOV-3 cells was “did not affect” in each case.

These data come from US8940497B2, “Enzyme regulating ether lipid signaling pathways” (The Scripps Research Institute, priority 2006, dated 2015).
